Counter-ions that a name gives are not always drawn.
Columns and labels:
[1] = biological target: T1, human factor-Xa (Homo sapiens, UniProt P00742); assay: Determination of anti-factor Xa activity (S-2222 coloring substrate, absorbance at 405 nm); format: biochemical; conditions: human factor-Xa 0.25 unit/ml, S-2222 0.4 mM, Tris buffer pH 8.4, room temperature, 5 minutes; read-out: Inhibitory Action against Factor Xa Activity (IC50 (nM))
T1 construct: purchased Cosmobio Co., Ltd
Experimental: Determination of Anti-factor Xa Activity
Anti-factor Xa activity was determined according to methods described by Hara et al. [Thrombo. Haemost., 71, 314 (1994)], which were slightly modified. S-2222, a coloring substrate (0.4 mM, Daiichi Pure Chemicals Co., Ltd.) and the test compounds were mixed in Tris hydrochloride buffered solution (50 mM, pH: 8.4) containing NaCl (0.9%). To this solution, human factor-Xa (0.25 unit/ml, Cosmobio Co., Ltd.) was added and the reaction was started. In the control group, distilled water was added to the Tris-buffered solution instead of the test compound. The reaction mixture (in total: 0.1 ml) was incubated at room temperature for 5 minutes. Optical absorbance of the reaction mixture was continuously determined at 405 nm with a 96-well microplate reader (Model 550, Biorad) and increase in the absorbance for 5 minutes was calculated as an indicator of factor Xa activity. To assess anti-factor Xa activities of the test compounds, concentrations of the test compounds to inhibit the factor Xa activity by 50% (IC50) were calculated.

[2] = biological target: T2, bovine trypsin (Bos taurus, UniProt P00760); assay: Determination of anti-trypsin activity (S-2222 coloring substrate, absorbance at 405 nm); format: biochemical; conditions: bovine trypsin 0.25 μg-protein/ml, S-2222 0.4 mM, Tris buffer pH 8.4, room temperature, 5 minutes; read-out: Inhibitory Action against Trypsin Activity (IC50 (nM))
T2 construct: purchased Sigma
T2 sequence (P00760 24-246): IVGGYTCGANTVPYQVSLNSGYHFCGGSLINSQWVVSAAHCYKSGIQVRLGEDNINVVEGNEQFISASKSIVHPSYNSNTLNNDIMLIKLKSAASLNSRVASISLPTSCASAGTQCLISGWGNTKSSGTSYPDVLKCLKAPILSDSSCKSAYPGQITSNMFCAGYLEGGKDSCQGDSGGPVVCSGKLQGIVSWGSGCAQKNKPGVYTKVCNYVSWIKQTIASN
Experimental: Determination of Anti-trypsin Activity
Anti-trypsin activity was determined according to methods described by Taniuchi et al. [Thromb. Haemost., 79, 543 (1998)], which were partially modified. S-2222, a coloring substrate (5 μl, final concentration: 0.4 mM, Daiichi Pure Chemicals Co., Ltd.) and the test compound (5 μl) were mixed with Tris hydrochloride buffered solution (50 mM, 85 μl, pH: 8.4) containing NaCl (0.9%). To this solution, bovine trypsin (5 μl, final concentration: 0.25 μg-protein/ml, Sigma) was added and the reaction was started. In the control group, distilled water was added to the Tris-buffered solution instead of the test compound. The reaction mixture (in total: 0.1 ml) was incubated at room temperature. Optical absorbance was continuously determined at 405 nm with a 96-well microplate reader (Model 550, Biorad) and increase in the absorbance for 5 minutes was calculated as an indicator of trypsin activity. To assess anti-trypsin activities of the test compounds, concentrations of the test compounds to inhibit the trypsin activity by 50% (IC50) were calculated.

T1 sequence (P00742 235-488 limits assumed): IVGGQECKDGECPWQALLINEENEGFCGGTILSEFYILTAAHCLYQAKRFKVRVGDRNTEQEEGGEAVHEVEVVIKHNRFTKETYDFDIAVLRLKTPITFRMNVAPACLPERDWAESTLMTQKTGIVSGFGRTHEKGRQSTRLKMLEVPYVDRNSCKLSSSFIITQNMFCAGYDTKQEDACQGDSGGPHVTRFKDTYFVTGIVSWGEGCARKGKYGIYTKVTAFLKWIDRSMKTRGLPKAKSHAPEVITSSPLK
T1 sequence (P00742 41-179 partner limits assumed): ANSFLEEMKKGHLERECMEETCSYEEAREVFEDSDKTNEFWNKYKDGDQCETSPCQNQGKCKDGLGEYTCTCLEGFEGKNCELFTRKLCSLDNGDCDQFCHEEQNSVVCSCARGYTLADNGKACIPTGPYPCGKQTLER

Row | IC50 [1] [nM] | IC50 [2] [nM] | Compound
1 | 7 | 2200 | N=C(N)c1cccc(/C=C/CN(c2ccc(OC3CCN(C4=NCCC4)CC3)c(Cl)c2)S(=O)(=O)CC(=O)O)c1 [Example 54, N-[3-(3-Amidinophenyl)-2-(E)-propenyl]-N-[3-chloro-4-[1-(4,5-dihydro-3H-pyrrol-2-yl)piperidin-4-yloxy]phenyl]sulfamoylacetic acid dihydrochloride]
2 | 9.8 | 4400 | N=C(N)c1cccc(/C=C/CN(c2ccc(OC3CCN(C4=NCCC4)CC3)c(C(N)=O)c2)S(=O)(=O)CC(=O)O)c1 [Example 72, N-[3-(3-Amidinophenyl)-2-(E)-propenyl]-N-[3-carbamoyl-4-[1-(4,5-dihydro-3H-pyrrol-2-yl)piperidin-4-yloxy]phenyl]sulfamoylacetic acid dihydrochloride]
3 | 7.9 | 540 | CCOC(=O)CS(=O)(=O)N(C/C=C/c1cccc(C(=N)N)c1)c1ccc(OC2CCN(c3ccncc3)CC2)c(Cl)c1 [Example 27, Ethyl N-[3-(3-amidinophenyl)-2-(E)-propenyl]-N-[3-chloro-4-[1-(4-pyridyl)piperidin-4-yloxy]phenyl]sulfamoylacetate dihydrochloride]
4 | 14 | 3100 | N=C(N)c1cccc(/C=C/CN(c2ccc(OC3CCN(C4=NCCC4)CC3)cc2)S(=O)(=O)CC(=O)O)c1 [Example 60, N-[3-(3-Amidinophenyl)-2-(E)-propenyl]-N-[4-[1-(4,5-dihydro-3H-pyrrol-2-yl)piperidin-4-yloxy]phenyl]sulfamoylacetic acid dihydrochloride]
5 | 6.8 | 860 | CCOC(=O)CS(=O)(=O)N(C/C=C/c1cccc(C(=N)N)c1)c1ccc(OC2CCN(C(=N)CC)CC2)c(Cl)c1 [Example 49, Ethyl N-[3-(3-amidinophenyl)-2-(E)-propenyl]-N-[3-chloro-4-[1-(1-iminopropyl)piperidin-4-yloxy]phenyl-1 sulfamoylacetatedihydrochloride]
6 | 8.3 | 5600 | Cc1cc(N(C/C=C/c2cccc(C(=N)N)c2)S(=O)(=O)CC(=O)O)ccc1OC1CCN(C2=NCCC2)CC1 [Example 66, N-[3-(3-Amidinophenyl)-2-(E)-propenyl]-N-[4-[1-(4,5-dihydro-3H-pyrrol-2-yl)piperidin-4-yloxy-]-3-methylphenyl]sulfamoylacetic acid dihydrochloride]
7 | 12 | 2300 | CCOC(=O)CS(=O)(=O)N(C/C=C/c1cccc(C(=N)N)c1)c1ccc(OC2CCN(C3=NCCC3)CC2)c(C)c1 [Example 65, Ethyl N-[3-(3-amidinophenyl)-2-(E)-propenyl]-N-[4-[1-(4,5-dihydro-3H-pyrrol-2-yl)piperidin-4-yloxy]-3-methylphenyl]sulfamoylacetate dihydrochloride]
8 | 12 | 3700 | CCOC(=O)CS(=O)(=O)N(C/C=C/c1cccc(C(=N)N)c1)c1ccc(OC2CCN(C3=NCCC3)CC2)c(C(F)(F)F)c1 [Example 77, Ethyl N-[3-(3-amidinophenyl)-2-(E)-propenyl]-N-[4-[1-(4,5-dihydro-3H-pyrrol-2-yl)piperidin-4-yloxy]-3-trifluoromethylphenyl]sulfamoylacetate dihydrochloride]
9 | 11 | 5300 | N=C(N)c1cccc(/C=C/CN(c2ccc(OC3CCN(C4=NCCC4)CC3)c(C(F)(F)F)c2)S(=O)(=O)CC(=O)O)c1 [Example 78, N-[3-(3-Amidinophenyl)-2-(E)-propenyl]-N-[4-[1-(4,5-dihydro-3H-pyrrol-2-yl)piperidin-4-yloxy]-3-trifluoromethylphenyl]sulfamoylacetic acid dihydrochloride]
10 | 5.8 | 1200 | N=CN1CCC(Oc2ccc(N(C/C=C/c3cccc(C(=N)N)c3)S(=O)(=O)CC(=O)O)cc2Cl)CC1 [Example 48, N-13-(3-Amidinophenyl)-2-(E)-propenyl]-N-[3-chloro-4-(1-formimidoylpiperidin-4-yloxy]phenyl]sulfamoylacetic acid dihydrochloride]
11 | 11 | 7300 | N=C(N)c1cccc(/C=C/CN(c2ccc(OC3CCN4CCCC4C3)c(Cl)c2)S(=O)(=O)CC(=O)O)c1 (stereo not drawn) [Example 42, dihydrochloride]
12 | 13 | 3500 | CC/N=C/N1CCC(Oc2ccc(N(C/C=C/c3cccc(C(=N)N)c3)S(=O)(=O)CC(=O)O)cc2Cl)CC1 [Example 87, N-[3-(3-Amidinophenyl)-2-(E)-propenyl]-N-[3-chloro-4-[1-(N-ethylformimidoyl)piperidin-4-yloxy]phenyl]sulfamoylacetic acid dihydrochloride]

Source: patent publication US7030138B2, “Benzamidine derivatives” (Sankyo Company, Limited, priority 2001, dated 2006)
